Experimental data taken from US10899756B2, “Phosphodiesterase inhibitors and uses thereof” (The Trustees of Columbia University in the City of New York, priority 2013, dated 2021).

Molecular target: PDE5 (Homo sapiens (Human), UniProt O76074)
Test: PDE5 Inhibition Assay (BPS PDE assay kit, fluorescence polarization)
Type: biochemical
Procedure: Materials and Methods: PDE5 inhibition was assayed at BPS Bioscience (San Diego, Calif.) using BPS PDE assay kits (BPS Catalog number 60300, enzyme lot 090810). Test compounds were supplied as liquid solutions of 10 mM concentration in DMSO. Sildenafil, used as a standard was dissolved in DMSO. Intermediate dilutions were 10% DMSO in PDE assay buffer and tests at ranges from 0.1 to 100 nM. 0.1 ng of enzyme was used per reaction, and the substrate was 100 nM FAM-cGMP.
Assay conditions: A series of dilutions of the test compounds were prepared with 10% DMSO in assay buffer and 5 μl of the dilution was added to a 50 μl reaction so that the final concentration of DMSO is 1% in all of reactions. The enzymatic reactions were conducted at room temperature for 60 minutes in a 50 μl mixture containing PDE assay buffer, 100 nM FAM-cAMP or 100 nM FAM-cGMP, a PDE enzyme, and the test compound. After the enzymatic reaction, 100 μl of a binding solution (1:100 dilution of the binding agent with the binding agent diluent) was added to each reaction and the reaction was performed at room temperature for 60 minutes. Fluorescence intensity was measured at an excitation of 485 nm and an emission of 528 nm using a Tecan Infinite M1000 microplate reader.
Data analysis: PDE activity assays were performed in duplicate at each concentration.
Fluorescence intensity is converted to fluorescence polarization using the Tecan Magellan6 software. The fluorescence polarization data were analyzed using the computer software, Graphpad Prism. The fluorescence polarization (FPt) in absence of the compound in each data set was defined as 100% activity. In the absence of PDE and the compound, the value of fluorescent polarization (FPb) in each data set was defined as 0% activity. The percent activity in the presence of the compound was calculated according to the following equation: % activity=(FP−FPb)/(FPt−FPb)×100%, where FP=the fluorescence polarization in the presence of the compound.
The values of % activity versus a series of compound concentrations were then plotted using non-linear regression analysis of Sigmoidal dose-response curve generated with the equation Y=B+(T−B)/1+10^((LogEC50−X)×Hill Slope), where Y=percent activity, B=minimum percent activity, T=maximum percent activity, X=logarithm of compound and Hill Slope=slope factor or Hill coefficient. The IC50 value was determined by the concentration causing a half-maximal percent activity.

Row | SMILES | IC50 [nM]
1 | COc1ccc(CNc2c3c(nc4ccccc24)CN(C(C)(C)C)C3=O)cc1Cl [Compound P, 2-(tert-butyl)-9-[(3-chloro-4-methoxybenzyl)amino]-2,3-dihydro-1H-pyrrolo[3,4-b]quinolin-1-one] | 333
2 | CCN1Cc2nc3ccc(OC)cc3c(NCc3ccc(OC)c(Cl)c3)c2C1=O [L, 9-((3-chloro-4-methoxybenzyl)amino)-2-ethyl-7-methoxy-2,3-dihydro-1H-pyrrolo[3,4-b]quinolin-1-one] | 3.8
3 | CCN1Cc2nc3ccccc3c(NCc3ccc(OC)c(Cl)c3)c2C1=O [O, 9-[(3-chloro-4-methoxybenzyl)amino]-2-ethyl-2,3-dihydro-1H-pyrrolo[3,4-b]quinolin-1-one] | 64

Now those with a lower IC50, led by results:

Row | IC50 [nM] | SMILES
4 | 1 | COc1ccc(CNc2c3c(nc4ccc(C#N)cc24)CCN(C)C3)cc1Cl [B, 10-[(3-chloro-4-methoxybenzyl)amino]-2-methyl-1,2,3,4-tetrahydrobenzo[b][1,6]naphthyridine-8-carbonitrile]
5 | 0.2 | CCN1CCc2nc3ccc(C#N)cc3c(NCc3ccc(OC)c(Cl)c3)c2C1 [C, 10-[(3-chloro-4-methoxybenzyl)amino]-2-ethyl-1,2,3,4-tetrahydrobenzo[b][1,6]naphthyridine-8-carbonitrile]
6 | 0.059 | CCN1Cc2nc3ccc(C#N)cc3c(NCc3ccc(OC)c(Cl)c3)c2C1=O [K, 9-[(3-chloro-4-methoxybenzyl)amino]-2-ethyl-1-oxo-2,3-dihydro-1H-pyrrolo[3,4-b]quinoline-7-carbonitrile]
7 | 0.29 | CCN1Cc2nc3ccc(C(F)(F)F)cc3c(NCc3ccc(OC)c(Cl)c3)c2C1=O [M, 9-[(3-chloro-4-methoxybenzyl)amino]-2-ethyl-7-(trifluoromethyl)-2,3-dihydro-1H-pyrrolo[3,4-b]quinolin-1-one]
8 | 1.7 | CCN1Cc2nc3ccc(Cl)cc3c(NCc3ccc(OC)c(Cl)c3)c2C1=O [N, 7-chloro-9-[(3-chloro-4-methoxybenzyl)amino]-2-ethyl-2,3-dihydro-1H-pyrrolo[3,4-b]quinolin-1-one]
